Source: patent US8247211B2, “Glycopeptide antibiotics” (American Cyanamid Company, priority 2001, dated 2012)
In brackets after ≈: the same amount, converted by molar mass. Blank lines part the entries; values can stand above or below the compound they belong to.

Tests used:
Test in all cases: In vitro antibacterial evaluation: minimum inhibitory concentration (MIC), broth dilution method
Type in all cases: cell-based
[1] = test system: Escherichia coli; settings: 5×10^5 CFU/mL, 18 hours at 35° C.
Description: (§1) The minimum inhibitory concentration (MIC), the lowest concentration of the antibiotic which inhibits growth of the test organism, is determined by the broth dilution method using Muller-Hinton II […] (Baltimore Biological Laboratories) following the recommendations of the National Committee for Clinical Laboratory Standards [Methods for dilution antimicrobial susceptibility tests for bacteria that grow aerobically, approved standard M7-A2, National Committee for Clinical Laboratory Standards, Villanova, Pa].
(§2) An inoculum level of 5×10^5 CFU/mL, and a range of antibiotic concentrations (64-0.06 μg/mL) is used. […] The test organisms include a spectrum of Gram-positive bacteria comprised of Staphylococcus sp., Streptococcus sp. and Enterococcus sp. These organisms include recent clinical isolates that are resistant to methicillin, penicillin and/or vancomycin.

[2] = test system: Staphylococcus sp.; settings: for MIC Staphylococcus aureus (ATCC 29213): strain ATCC 29213; for MIC Staphylococcus aureus (GC 1131): strain GC 1131; for MIC Staphylococcus aureus (GC 3051): strain GC 3051; for MIC Staphylococcus aureus (GC 3053): strain GC 3053; for MIC Staphylococcus aureus (GC 4541): strain GC 4541; for MIC Staphylococcus aureus (GC 4542): strain GC 4542; for MIC Staphylococcus aureus (GC 4544): strain GC 4544; for MIC Staphylococcus aureus (GC 4545): strain GC 4545
Description: as §1, §2

[3] = test system: Streptococcus sp.; settings: broth dilution, 5×10^5 CFU/mL, 18 hours at 35° C.
Description: as §1, §2

[4] = test system: Enterococcus sp.; settings: broth dilution, 5×10^5 CFU/mL, 18 hours at 35° C.
Description: as §1, §2

[5] = broth dilution, 5×10^5 CFU/mL, 18 hours at 35° C.
[6] = broth dilution, 18 hours at 35° C.
[7] = strain GC 4543, broth dilution, 18 hours at 35° C.
[8] = strain GC 4546, broth dilution, 18 hours at 35° C.
[9] = strain GC 4547, broth dilution, 18 hours at 35° C.
[10] = strain GC 4548, broth dilution, 18 hours at 35° C.
[11] = strain GC 4549, broth dilution, 18 hours at 35° C.
[12] = strain GC 4551, broth dilution, 18 hours at 35° C.
[13] = strain GC 6257, broth dilution, 18 hours at 35° C.

MIC Escherichia coli (ATCC 25922) [1]: 32 µg/mL (≈ 22 µM)
MIC Escherichia coli (GC 4559) [1]: 32 µg/mL (≈ 22 µM)
MIC Escherichia coli (GC 4560) [1]: 2 µg/mL (≈ 1.37 µM)
MIC Coagulase Negative Staphylococcus (GC 4547) [2, 5]: 2 µg/mL (≈ 1.37 µM)
MIC Coagulase Negative Staphylococcus (GC 4548) [2, 5]: 1 µg/mL (≈ 0.687 µM)
MIC Coagulase Negative Staphylococcus (GC 4549) [2, 5]: 1 µg/mL (≈ 0.687 µM)
MIC Coagulase Negative Staphylococcus (GC 4551) [2, 5]: 4 µg/mL (≈ 2.75 µM)
MIC Coagulase Negative Staphylococcus (GC 6257) [2, 5]: 1 µg/mL (≈ 0.687 µM)
MIC Staphylococcus aureus-SMITH (GC 4543) [2, 5]: 2 µg/mL (≈ 1.37 µM)
MIC Staphylococcus aureus (ATCC 29213) [2]: 4 µg/mL (≈ 2.75 µM)
MIC Staphylococcus aureus (ATCC 29213) [2, 6]: 4 µg/mL (≈ 2.75 µM)
MIC Staphylococcus aureus (GC 1131) [2]: 2 µg/mL (≈ 1.37 µM)
MIC Staphylococcus aureus (GC 1131) [2, 6]: 2 µg/mL (≈ 1.37 µM)
MIC Staphylococcus aureus (GC 3051) [2]: 2 µg/mL (≈ 1.37 µM)
MIC Staphylococcus aureus (GC 3051) [2, 6]: 2 µg/mL (≈ 1.37 µM)
MIC Staphylococcus aureus (GC 3053) [2]: 2 µg/mL (≈ 1.37 µM)
MIC Staphylococcus aureus (GC 3053) [2, 6]: 2 µg/mL (≈ 1.37 µM)
MIC Staphylococcus aureus (GC 4541) [2]: 2 µg/mL (≈ 1.37 µM)
MIC Staphylococcus aureus (GC 4541) [2, 6]: 2 µg/mL (≈ 1.37 µM)
MIC Staphylococcus aureus (GC 4542) [2]: 2 µg/mL (≈ 1.37 µM)
MIC Staphylococcus aureus (GC 4542) [2, 6]: 2 µg/mL (≈ 1.37 µM)
MIC Staphylococcus aureus-SMITH (GC 4543) [2, 7]: 2 µg/mL (≈ 1.37 µM)
MIC Staphylococcus aureus (GC 4544) [2]: 2 µg/mL (≈ 1.37 µM)
MIC Staphylococcus aureus (GC 4544) [2, 6]: 2 µg/mL (≈ 1.37 µM)
MIC Staphylococcus aureus (GC 4545) [2]: 2 µg/mL (≈ 1.37 µM)
MIC Staphylococcus aureus (GC 4545) [2, 6]: 2 µg/mL (≈ 1.37 µM)
MIC Coagulase Negative Staphylococcus (GC 4547) [2, 9]: 2 µg/mL (≈ 1.37 µM)
MIC Coagulase Negative Staphylococcus (GC 4548) [2, 10]: 1 µg/mL (≈ 0.687 µM)
MIC Coagulase Negative Staphylococcus (GC 4549) [2, 11]: 1 µg/mL (≈ 0.687 µM)
MIC Coagulase Negative Staphylococcus (GC 4551) [2, 12]: 4 µg/mL (≈ 2.75 µM)
MIC Coagulase Negative Staphylococcus (GC 6257) [2, 13]: 1 µg/mL (≈ 0.687 µM)
MIC Streptococcus agalactiae (GC 4564) [3]: <0.06 µg/mL
MIC Streptococcus pneumoniae (GC 1894) [3]: <0.06 µg/mL
MIC Streptococcus pneumoniae (GC 4565) [3]: <0.06 µg/mL
MIC Streptococcus pneumonine (ATCC 6301) [3]: <0.06 µg/mL
MIC Streptococcus pyogenes (GC 4563) [3]: <0.06 µg/mL
MIC Enterococccus avium (GC 4558) [4]: 2 µg/mL (≈ 1.37 µM)
MIC Enterococccus faecalis (ATCC 29212) [4]: 2 µg/mL (≈ 1.37 µM)
MIC Enterococccus faecalis (GC 2691) [4]: 2 µg/mL (≈ 1.37 µM)
MIC Enterococccus faecalis (GC 3059) [4]: 2 µg/mL (≈ 1.37 µM)
MIC Enterococccus faecalis (GC 4552) [4]: 2 µg/mL (≈ 1.37 µM)
MIC Enterococccus faecalis (GC 4553) [4]: 2 µg/mL (≈ 1.37 µM)
MIC Enterococccus faecalis (GC 4554) [4]: 2 µg/mL (≈ 1.37 µM)
MIC Enterococccus faecalis (GC 6189) [4]: 2 µg/mL (≈ 1.37 µM)
MIC Enterococccus faecium (GC 2243) [4]: 2 µg/mL (≈ 1.37 µM)
MIC Enterococccus faecium (GC 4556) [4]: 2 µg/mL (≈ 1.37 µM)
MIC Enterococccus faecium (GC 4557) [4]: 2 µg/mL (≈ 1.37 µM)
MIC Enterococcus faecalis (GC 2242) [4]: 2 µg/mL (≈ 1.37 µM)
Structure (SMILES): CC(c1ccccc1)C1NC(=O)CNC(=O)C(CO)NC(=O)C(C(O)C2CNC(=N)N2C2OC(CO)C(O)C(O)C2O)NC(=O)C(C(O)C2CNC(=N)N2)NC(=O)C(Cc2ccc(OC3OC(CO)C(OC4OC5COC(CC67CC8CC(CC(C8)C6)C7)OC5C(O)C4O)C(O)C3O)cc2)NC1=O (stereo not shown) [Example 129]
MIC Staphylococcus haemolyticus (GC 4546) [2, 5]: 2 µg/mL (≈ 1.37 µM)
MIC Staphylococcus haemolyticus (GC 4546) [2, 8]: 2 µg/mL (≈ 1.37 µM)

MIC Escherichia coli (ATCC 25922) [1]: >64 µg/mL
MIC Escherichia coli (GC 4559) [1]: >64 µg/mL
MIC Escherichia coli (GC 4560) [1]: 64 µg/mL (≈ 38.7 µM)
MIC Coagulase Negative Staphylococcus (GC 4547) [2, 5]: 32 µg/mL (≈ 19.4 µM)
MIC Coagulase Negative Staphylococcus (GC 4548) [2, 5]: 32 µg/mL (≈ 19.4 µM)
MIC Coagulase Negative Staphylococcus (GC 4549) [2, 5]: 16 µg/mL (≈ 9.69 µM)
MIC Coagulase Negative Staphylococcus (GC 4551) [2, 5]: 32 µg/mL (≈ 19.4 µM)
MIC Coagulase Negative Staphylococcus (GC 6257) [2, 5]: 32 µg/mL (≈ 19.4 µM)
MIC Staphylococcus aureus-SMITH (GC 4543) [2, 5]: 32 µg/mL (≈ 19.4 µM)
MIC Staphylococcus aureus (ATCC 29213) [2]: 32 µg/mL (≈ 19.4 µM)
MIC Staphylococcus aureus (ATCC 29213) [2, 6]: 32 µg/mL (≈ 19.4 µM)
MIC Staphylococcus aureus (GC 1131) [2]: 32 µg/mL (≈ 19.4 µM)
MIC Staphylococcus aureus (GC 1131) [2, 6]: 32 µg/mL (≈ 19.4 µM)
MIC Staphylococcus aureus (GC 3051) [2]: 32 µg/mL (≈ 19.4 µM)
MIC Staphylococcus aureus (GC 3051) [2, 6]: 32 µg/mL (≈ 19.4 µM)
MIC Staphylococcus aureus (GC 3053) [2]: 32 µg/mL (≈ 19.4 µM)
MIC Staphylococcus aureus (GC 3053) [2, 6]: 32 µg/mL (≈ 19.4 µM)
MIC Staphylococcus aureus (GC 4541) [2]: 32 µg/mL (≈ 19.4 µM)
MIC Staphylococcus aureus (GC 4541) [2, 6]: 32 µg/mL (≈ 19.4 µM)
MIC Staphylococcus aureus (GC 4542) [2]: 32 µg/mL (≈ 19.4 µM)
MIC Staphylococcus aureus (GC 4542) [2, 6]: 32 µg/mL (≈ 19.4 µM)
MIC Staphylococcus aureus-SMITH (GC 4543) [2, 7]: 32 µg/mL (≈ 19.4 µM)
MIC Staphylococcus aureus (GC 4544) [2]: 32 µg/mL (≈ 19.4 µM)
MIC Staphylococcus aureus (GC 4544) [2, 6]: 32 µg/mL (≈ 19.4 µM)
MIC Staphylococcus aureus (GC 4545) [2]: 32 µg/mL (≈ 19.4 µM)
MIC Staphylococcus aureus (GC 4545) [2, 6]: 32 µg/mL (≈ 19.4 µM)
MIC Coagulase Negative Staphylococcus (GC 4547) [2, 9]: 32 µg/mL (≈ 19.4 µM)
MIC Coagulase Negative Staphylococcus (GC 4548) [2, 10]: 32 µg/mL (≈ 19.4 µM)
MIC Coagulase Negative Staphylococcus (GC 4549) [2, 11]: 16 µg/mL (≈ 9.69 µM)
MIC Coagulase Negative Staphylococcus (GC 4551) [2, 12]: 32 µg/mL (≈ 19.4 µM)
MIC Coagulase Negative Staphylococcus (GC 6257) [2, 13]: 32 µg/mL (≈ 19.4 µM)
MIC Streptococcus agalactiae (GC 4564) [3]: 8 µg/mL (≈ 4.84 µM)
MIC Streptococcus pneumoniae (GC 1894) [3]: 1 µg/mL (≈ 0.605 µM)
MIC Streptococcus pneumoniae (GC 4565) [3]: 4 µg/mL (≈ 2.42 µM)
MIC Streptococcus pneumonine (ATCC 6301) [3]: 8 µg/mL (≈ 4.84 µM)
MIC Streptococcus pyogenes (GC 4563) [3]: 16 µg/mL (≈ 9.69 µM)
MIC Enterococccus avium (GC 4558) [4]: 16 µg/mL (≈ 9.69 µM)
MIC Enterococccus faecalis (ATCC 29212) [4]: 32 µg/mL (≈ 19.4 µM)
MIC Enterococccus faecalis (GC 2691) [4]: 32 µg/mL (≈ 19.4 µM)
MIC Enterococccus faecalis (GC 3059) [4]: 64 µg/mL (≈ 38.7 µM)
MIC Enterococccus faecalis (GC 4552) [4]: 32 µg/mL (≈ 19.4 µM)
MIC Enterococccus faecalis (GC 4553) [4]: 8 µg/mL (≈ 4.84 µM)
MIC Enterococccus faecalis (GC 4554) [4]: 32 µg/mL (≈ 19.4 µM)
MIC Enterococccus faecalis (GC 6189) [4]: 32 µg/mL (≈ 19.4 µM)
MIC Enterococccus faecium (GC 2243) [4]: 8 µg/mL (≈ 4.84 µM)
MIC Enterococccus faecium (GC 4556) [4]: 64 µg/mL (≈ 38.7 µM)
MIC Enterococccus faecium (GC 4557) [4]: 32 µg/mL (≈ 19.4 µM)
MIC Enterococcus faecalis (GC 2242) [4]: 32 µg/mL (≈ 19.4 µM)
Structure (SMILES): COC1CCC2(C)C(CCC3C2CCC2(C)C(C(C)CCC4OCC5OC(OC6C(CO)OC(Oc7ccc(CC8NC(=O)C(C(C)c9ccccc9)NC(=O)CNC(=O)C(CO)NC(=O)C(C(O)C9CNC(=N)N9C9OC(CO)C(O)C(O)C9O)NC(=O)C(C(O)C9CNC(=N)N9)NC8=O)cc7)C(O)C6O)C(O)C(O)C5O4)CCC32)C1 (stereo not drawn) [Example 130, Cyclo[glycyl-β-methylphenylalanyl-O-[4-O-[4,6-O-(3-methoxycholan-24-ylidene)hexopyranosyl]hexopyranosyl]tyrosyl-3-(2-iminoimidazolidin-4-yl)seryl-3-(3-hexopyranosyl-2-iminoimidazolidin-4-yl)serylseryl]]
MIC Staphylococcus haemolyticus (GC 4546) [2, 5]: 32 µg/mL (≈ 19.4 µM)
MIC Staphylococcus haemolyticus (GC 4546) [2, 8]: 32 µg/mL (≈ 19.4 µM)
